# Tests used:
# Format in all cases: functional
# [1] = system: Mycolicibacterium smegmatis; assay: Antimycobacterial against Mycobacterium smegmatis
# [2] = system: Mycolicibacterium smegmatis; assay: Antimycobacterial against Mycobacterium smegmatis in presence of rifampicin
# [3] = system: Mycolicibacterium smegmatis; assay: Antimycobacterial against Mycobacterium smegmatis in presence of chlorpromazine
# [4] = system: Mycolicibacterium smegmatis; assay: Antimycobacterial against Mycobacterium smegmatis in presence of 25-desacetylrifampicin
# [5] = system: Mycolicibacterium smegmatis; assay: Antimycobacterial against Mycobacterium smegmatis in presence of spectinomycin
# [6] = system: Mycolicibacterium smegmatis; assay: Antimycobacterial against Mycobacterium smegmatis in presence of streptomycin
# [7] = system: Mycolicibacterium smegmatis; assay: Antimycobacterial against Mycobacterium smegmatis in presence of kanamycin
# [8] = system: Mycolicibacterium smegmatis; assay: Antimycobacterial against Mycobacterium smegmatis in presence of ciprofloxacin
# [9] = system: Mycolicibacterium smegmatis; assay: Antimycobacterial against Mycobacterium smegmatis in presence of TMC207
structure (smiles),measurement,setting,value
CN[C@@H]1[C@H](O)[C@H](NC)[C@H]2O[C@@]3(O)C(=O)C[C@@H](C)O[C@H]3O[C@@H]2[C@H]1O [SPECTINOMYCIN],MIC99,[1],84.1 µM
COc1nc2ccc(Br)cc2cc1[C@@H](c1ccccc1)[C@@](O)(CCN(C)C)c1cccc2ccccc12 [BEDAQUILINE],MIC99,[1],0.05 µM
CC[C@@H](CO)NCCN[C@@H](CC)CO [ETHAMBUTOL],MIC99,[1],0.76 µM
CO[C@H]1/C=C/O[C@@]2(C)Oc3c(C)c(O)c4c(O)c(c(/C=N/N5CCN(C)CC5)c(O)c4c3C2=O)NC(=O)/C(C)=C\C=C\[C@H](C)[C@H](O)[C@@H](C)[C@@H](O)[C@@H](C)[C@H](O)[C@@H]1C [DESACETYLRIFAMPIN],fractional inhibitory concentration index (FICI),[2],0.5
same,MIC99,[1],1.33 µM
NC[C@H]1O[C@H](O[C@H]2[C@H](O)[C@@H](O[C@H]3O[C@H](CO)[C@@H](O)[C@H](N)[C@H]3O)[C@H](N)C[C@@H]2N)[C@H](O)[C@@H](O)[C@@H]1O [KANAMYCIN],MIC99,[1],1.76 µM
CN(C)CCCN1c2ccc(O)cc2Sc2ccc(Cl)cc21 [7-HYDROXYCHLORPROMAZINE],fractional inhibitory concentration index (FICI),[3],0.75
same,fractional inhibitory concentration index (FICI),[4],0.75
same,fractional inhibitory concentration index (FICI),[5],0.19
same,fractional inhibitory concentration index (FICI),[6],0.79
same,fractional inhibitory concentration index (FICI),[7],0.5
same,fractional inhibitory concentration index (FICI),[2],0.63
same,MIC99,[1],62.2 µM
CN(C)CCCN1c2ccccc2Sc2ccc(Cl)cc21 [CHLORPROMAZINE],fractional inhibitory concentration index (FICI),[4],0.5
same,fractional inhibitory concentration index (FICI),[8],0.73
same,fractional inhibitory concentration index (FICI),[9],0.7
same,fractional inhibitory concentration index (FICI),[5],0.31
same,fractional inhibitory concentration index (FICI),[6],0.79
same,fractional inhibitory concentration index (FICI),[7],1
same,fractional inhibitory concentration index (FICI),[2],0.63
same,MIC99,[1],58.6 µM
O=C(O)c1cn(C2CC2)c2cc(N3CCNCC3)c(F)cc2c1=O [CIPROFLOXACIN],MIC99,[1],0.63 µM
CCn1cc(C(=O)O)c(=O)c2ccc(C)nc21 [NALIDIXIC ACID],MIC99,[1],1440 µM
CN[C@@H]1[C@H](O[C@H]2[C@H](O[C@H]3[C@H](O)[C@@H](O)[C@H](N=C(N)N)[C@@H](O)[C@@H]3N=C(N)N)O[C@@H](C)[C@]2(O)C=O)O[C@@H](CO)[C@H](O)[C@H]1O [STREPTOMYCIN],MIC99,[1],0.07 µM
CNCCCN1c2ccccc2[S+]([O-])c2ccc(Cl)cc21 (configuration not stated),MIC99,[1],> 2080 µM
C[N+](C)([O-])CCCN1c2ccccc2Sc2ccc(Cl)cc21,fractional inhibitory concentration index (FICI),[4],0.75
same,fractional inhibitory concentration index (FICI),[5],0.63
same,fractional inhibitory concentration index (FICI),[6],0.74
same,fractional inhibitory concentration index (FICI),[7],1
same,fractional inhibitory concentration index (FICI),[2],1
same,MIC99,[1],995 µM
C[N+](C)([O-])CCCN1c2ccccc2[S+]([O-])c2ccc(Cl)cc21 (configuration not stated),MIC99,[1],> 1900 µM
C[C@H]1COc2c(N3CCN(C)CC3)c(F)cc3c(=O)c(C(=O)O)cn1c23 [LEVOFLOXACIN],MIC99,[1],0.58 µM
CO[C@H]1/C=C/O[C@@]2(C)Oc3c(C)c(O)c4c(O)c(c(/C=N/N5CCN(C)CC5)c(O)c4c3C2=O)NC(=O)/C(C)=C\C=C\[C@H](C)[C@H](O)[C@@H](C)[C@@H](O)[C@@H](C)[C@H](OC(C)=O)[C@@H]1C [RIFAMPIN],MIC99,[1],1.26 µM
CNCCCN1c2ccccc2Sc2ccc(Cl)cc21 [NOR1-CHLORPROMAZINE],fractional inhibitory concentration index (FICI),[3],0.75
same,fractional inhibitory concentration index (FICI),[4],0.5
same,fractional inhibitory concentration index (FICI),[5],0.31
same,fractional inhibitory concentration index (FICI),[6],0.49
same,fractional inhibitory concentration index (FICI),[7],0.5
same,fractional inhibitory concentration index (FICI),[2],0.5
same,MIC99,[1],63.3 µM
CN(C)CCCN1c2ccccc2[S+]([O-])c2ccc(Cl)cc21 (configuration not stated) [CHLOROPROMAZINE SULFOXIDE],MIC99,[1],> 1990 µM

# From ChEMBL document CHEMBL3217550, “Synthesis and synergistic antimycobacterial screening of chlorpromazine and its metabolites” (2014)
